Assay results as given in patent publication US9139812B2, “CD49F promoting proliferation, multipotency and reprogramming of adult stem cells through PI3K/AKT/GSK3 pathway” (KANG STEM HOLDINGS CO., LTD, priority 2010, dated 2015).
“Also recorded” adds a separate entry of the source.

Legend:
Assay type in all cases: cell-based, human
[1] = tested on: adult stem cells overexpressing CD49f; experiment: MTT cell proliferation assay in CD49f-overexpressing adult stem cells; conditions: 24 and 48 hours
Method: (§1) In order to further confirm whether CD49f genetic expression is dependent on the activation of PI3K/AKT/GSK3 pathway, adult stem cells overexpressing CD49f were treated with LY294002 or BIO for 24 hours and 48 hours.
The proliferation potential of cells was measured by MTT assay analysis based on the ability of living cells to convert tetrazolium salt into purple formazan. Adult stem cells were transduced with either control vector or CD49f expression vector. After 24 hours from transduction, cells were seeded onto 24-well plate, and incubated in medium comprising LY294002 and BIO. After culture for 24 hours and 48 hours, […] of MTT stock solution (5 mg/ml, Sigma) was added to each well, and then further incubated at 37° C. for 4 hours. After removing the supernatant, […] of DMSO was added to each well so that insoluble purple formazan crystals can be dissolved […]. Then, cells were transferred to 96-well microplate and then the absorbance was measured using EL800 microplate reader (BIO-TEK Instruments, Winooski, Vt., U.S.A.) at wavelength of 540 nm. All of measurements were repeated three times.

adult stem cells = experiment: Survival of adult stem cells treated with BIO; conditions: BIO treatment
CD49f-overexpressed MSCs = experiment: Osteogenic differentiation of CD49f-overexpressed adult stem cells (Alizarin Red S, RT-PCR)
Method: (§2) Osteogenesis was confirmed through Alizarin Red S staining.
The monolayer-incubated cells (Comparative Example 1) and sphere-derived cells (Example 1) were incubated in DMEM containing 5% FBS, 50 μM L-ascorbate-2-phosphate, 0.1 μM dexamethasone and […] glycerolphosphate to induce differentiation into bone tissue. The cells were stained with Alizarin Red dye specific to calcium, and then the dye was extracted by treating with 100 mM cetylpyridinium chloride (Sigma-Aldrich) for one hour and used for quantitative analysis. The emission of solubilized Alizarin Red S was measured by means of spectrophotometer at 570 nm.
(§3) Subsequently, whether in differentiation of adult stem cells into osteocytes and adipocytes CD49f expression can be regulated by PI3K/AKT/GSK3 pathway was identified. CD49f-overexpressed adult stem cells were treated with LY294002 and BIO, and then incubated in osteocyte and adipocyte media, respectively, to induce differentiation into osteogenic and adipogenic lineages.

PI3K/AKT/GSK3β [2] = experiment: Western blot for PI3K, AKT, GSK3β phosphorylation in MSC spheres; conditions: spheres treated with 0.2 μM BIO, compared to monolayer-incubated adult stem cells
Method: FIG. 6(A) is the result of Western blot analysis conducted after 7 days from sphere culture, wherein MSC spheres were collected by means of 40 μm strainer and then washed two times, and the phosphorylation levels of PI3K and its sequential downstream effectors, AKT and GSK3β were analyzed in monolayer cells, spheres, spheres treated with 0.2 μM BIO, and spheres treated with 30 μM LY294002.
(§4) Western blot analysis for PI3K, AKT, and GSK3β was conducted according to the reference (Park et al., 2009). Adult stem cells incubated as monolayer or spheres were crushed in 50 mM Tris-HCl buffer comprising 1% Triton X-100 to which 1 mM phenylmethylsulfonyl fluoride, 1 mM aprotinin, 1 mM leupeptin, 1 mM antipain, and 0.1 mM sodium orthovanadate were added, 137 mM NaCl, 2 mM EDTA, and 0.1% SDS. The content of protein was determined using DC assay kit (Bio-Rad, USA), and then SDS-PAGE was conducted by loading a given amount of protein on 0-15% polyacrylamide gel. Then protein was transferred to nitrocellulose membrane at 50 V, 350 mA for 5 hours. All of antibodies were used according to the manufacturer's instructions, and the protein bands were identified using enhanced chemiluminescence detection kit (Amersham Pharmacia Biotech, Buckinghamshire, UK).

[3] = tested on: CD49f-overexpressed cells; experiment: Adipogenic differentiation of CD49f-overexpressed adult stem cells (Oil Red O, RT-PCR)
Method: as §2
The cell culture of monolayer-incubated cells (Comparative Example 1) and sphere-derived cells (Example 1) was conducted using DMEM containing 5% FBS, 1 μM dexamethasone, 10 μM insulin, 200 μM indomethacin, and 0.5 mM isobutylmethylxanthine to induce differentiation into adipose tissue.
To determine the differentiation degree from fat accumulation present in cells, incubated cells were stained with Oil Red 0, and then Oil Red ° penetrated into cells was extracted with 100% isopropyl alcohol, and quantified with ELISA plate reader (EL800, Bio-Tek Instruments, USA) at OD 500. In addition, using RT-PCR the expression of C/EBP β, AP2, and PPARγ as adipose tissue-specific genes was examined.
as §3

[4] = tested on: adult stem cells overexpressing CD49f; experiment: Sphere formation assay in CD49f-overexpressing adult stem cells
Method: (§5) Cells were seeded onto 24-well plate, and then the optical density was measured after 24 hour and 48 hours (*, P<0.05; **, P<0.01). FIG. 9(B) is the result of measuring a size of spheres in the presence or absence of CD49f, LY294002, BIO (*, P<0.05; **, P<0.01). FIG. 9(C) is the result of Western blot analysis for PI3K/AKT/GSK3β. CD49f expression vector was transduced into cells, which were than treated with LY294002 and BIO. Using phospho-specific antibodies for respective proteins the phosphorylation level of protein kinases was identified via Western blotting. 20 μg of protein lysate was loaded onto each well.
as §1

adult stem cell spheres = experiment: Formation of adult stem cell (MSC) spheres with GSK3 or PI3K inhibitor; conditions: after 7 days; BIO 0.2 μM to 0.5 μM; LY294002 30 μM to 50 μM
Method: To form adult stem cell spheres with preventing the adhesion of cells to the bottom of plastic container, 100 mm culture plate coated with 1% agarose (Nunc, Rochester, N.Y.) was used, and 1.5×10^5 adult stem cells were incubated in the growth medium as described in Preparation 1. A total of 15,000 cells were seeded per 1 ml of the medium, and adult stem cell spheres were incubated for one week. To prevent cell loss the culture solution was partially replaced only two times per week. After 7 days, adult stem cell spheres were collected by means of 40 μm pore cell strainer. Adult stem cell spheres as collected were washed with PBS, and gently centrifuged (800 rpm/5 min) for supplementary experiments.
To identify the influence of GSK3 and PI3K signal transduction on sphere formation the inhibitory experiment was practiced. After treatment with BIO (Sigma-Aldrich) as GSK3 inhibitor at the concentration of 0 μM, 0.2 μM, or 0.5 μM, or with […] (Calbiochem, La Jolla, Calif.) as PI3K inhibitor at the concentration of 0 μM, 10 μM, 30 μM, or 50 μM the formation of adult stem cell spheres was observed. The number of adult stem cell spheres was counted after 7 days from culture.

PI3K/AKT/GSK3β [5] = experiment: Western blot for PI3K/AKT/GSK3β in CD49f-overexpressing adult stem cells
Method: as §5
as §4, with “All of antibodies were used according to the manufacturer's instructions, and the protein bands were identified using enhanced chemiluminescence detection kit (Amersham Pharmacia Biotech, Buckinghamshire, UK).” left out

SMILES: O=C1Nc2cc(Br)ccc2/C1=C1/Nc2ccccc2/C1=N\O [BIO]
- growth rate / cell proliferation (MTT) [1]: higher
- survival potential of adult stem cells (adult stem cells): does not adversely affect
- propensity of adult stem cells to differentiate into osteocytes (CD49f-overexpressed MSCs; BIO treatment): increases
- mineral accumulation (Alizarin Red S staining) (CD49f-overexpressed MSCs; CD49f-overexpressed MSCs, osteocyte induction): further increased
- mRNA levels of osteocyte-specific markers (BGLAP, VDR, MSX2, OSTEOCALCIN, RUNX2) (CD49f-overexpressed MSCs; RT-PCR, CD49f-overexpressed adult stem cells): further increased; also recorded: upregulated
- phospho-PI3K and phospho-AKT (PI3K/AKT/GSK3β [2]): increased
- mRNA levels of adipocyte transcription factors (C/EBP β, aP2, PPARγ, LEPTIN) ([3]; RT-PCR): inhibited; also recorded: significantly reduced
- lipid accumulation (Oil Red O staining) ([3]; compared to untreated control group): inhibited
- number of adult stem cell spheres / sphere formation [4]: increased
- number of adult stem cell spheres formed (adult stem cell spheres): significantly increased
- size of adult stem cell spheres (adult stem cell spheres): significantly increased
- AKT phosphorylation (PI3K/AKT/GSK3β [5]): induced phosphorylation
- GSK3 phosphorylation (PI3K/AKT/GSK3β [5]): induced phosphorylation
